Assay results from patent publication US12364709B2, “Bioavailable poly amines” (AMINEX THERAPEUTICS, INC., priority 2016, dated 2025).
Like-named read-outs stand apart in the source and are kept apart here.

Experiment: 28-day repeat-dose toxicity study, toxicokinetics of AMXT 1501 dicaprate
Type: in vivo, beagle dogs
Conditions: both sexes, beagle, dog, plasma, po
Experimental: AMXT 1501 PK parameters were calculated for all AMXT 1501 dicaprate-dosed animals for the first dose (Day 1) and last dose (Day 28).

Structure (SMILES): CCCCCCCCCCCCCCCC(=O)NCCCC[C@@H](N)C(=O)NCCCNCCCCNCCCN [AMXT 1501 dicaprate]
- AUC(0-t) (8 mg/kg/day, 8 mg/kg/day PO, DFMO 0, Day 1, M+F combined, read-out: AUC0-24 hr Median): 1500 ng·h/mL
- Cmax (8 mg/kg/day, 8 mg/kg/day PO, DFMO 0, Day 1, M+F combined, read-out: Cmax Mean): 95.6 ng/mL
- Cmax (8 mg/kg/day, 8 mg/kg/day PO, DFMO 0, Day 1, M+F combined, read-out: Cmax Median): 115 ng/mL
- Tmax (8 mg/kg/day, 8 mg/kg/day PO, DFMO 0, Day 1, M+F combined, read-out: Tmax Mean): 5.33 h
- Tmax (8 mg/kg/day, 8 mg/kg/day PO, DFMO 0, Day 1, M+F combined, read-out: Tmax Median): 6 h
- AUC(0-t) (8 mg/kg/day, 8 mg/kg/day PO, DFMO 0, Day 28, M+F combined, read-out: AUC0-24 hr Mean): 2210 ng·h/mL
- AUC(0-t) (8 mg/kg/day, 8 mg/kg/day PO, DFMO 0, Day 28, M+F combined, read-out: AUC0-24 hr Median): 1690 ng·h/mL
- AUC(0-t) (8 mg/kg/day, 8 mg/kg/day PO, DFMO 0, Day 28, M+F combined, read-out: AUC0-t Mean): 3390 ng·h/mL
- AUC(0-t) (8 mg/kg/day, 8 mg/kg/day PO, DFMO 0, Day 28, M+F combined, read-out: AUC0-t Median): 1900 ng·h/mL
- AUC(0-inf) (8 mg/kg/day, 8 mg/kg/day PO, DFMO 0, Day 28, M+F combined, read-out: AUC0-∞ Mean): 3440 ng·h/mL
- AUC(0-inf) (8 mg/kg/day, 8 mg/kg/day PO, DFMO 0, Day 28, M+F combined, read-out: AUC0-∞ Median): 1930 ng·h/mL
- Cmax (8 mg/kg/day, 8 mg/kg/day PO, DFMO 0, Day 28, M+F combined, read-out: Cmax Mean): 153 ng/mL
- Cmax (8 mg/kg/day, 8 mg/kg/day PO, DFMO 0, Day 28, M+F combined, read-out: Cmax Median): 127 ng/mL
- Tmax (8 mg/kg/day, 8 mg/kg/day PO, DFMO 0, Day 28, M+F combined, read-out: Tmax Mean): 4.6 h
- Tmax (8 mg/kg/day, 8 mg/kg/day PO, DFMO 0, Day 28, M+F combined, read-out: Tmax Median): 6 h
- half-life (8 mg/kg/day, 8 mg/kg/day PO, DFMO 0, Day 28, M+F combined, read-out: t1/2 Mean (converted)): 19.7 h
- half-life (8 mg/kg/day, 8 mg/kg/day PO, DFMO 0, Day 28, M+F combined, read-out: t1/2 Median (converted)): 18.7 h
- AUC(0-t) (8 mg/kg/day, 8 mg/kg/day PO, DFMO 50 mg/kg/day, Day 28, M+F combined, read-out: AUC0-24 hr Mean): 2120 ng·h/mL
- AUC(0-t) (8 mg/kg/day, 8 mg/kg/day PO, DFMO 50 mg/kg/day, Day 28, M+F combined, read-out: AUC0-24 hr Median): 2250 ng·h/mL
- AUC(0-t) (8 mg/kg/day, 8 mg/kg/day PO, DFMO 50 mg/kg/day, Day 28, M+F combined, read-out: AUC0-t Mean): 3010 ng·h/mL
- AUC(0-t) (8 mg/kg/day, 8 mg/kg/day PO, DFMO 50 mg/kg/day, Day 28, M+F combined, read-out: AUC0-t Median): 2970 ng·h/mL
- AUC(0-inf) (8 mg/kg/day, 8 mg/kg/day PO, DFMO 50 mg/kg/day, Day 28, M+F combined, read-out: AUC0-∞ Mean): 3070 ng·h/mL
- AUC(0-inf) (8 mg/kg/day, 8 mg/kg/day PO, DFMO 50 mg/kg/day, Day 28, M+F combined, read-out: AUC0-∞ Median): 3020 ng·h/mL
- Cmax (8 mg/kg/day, 8 mg/kg/day PO, DFMO 50 mg/kg/day, Day 28, M+F combined, read-out: Cmax Mean): 152 ng/mL
- Cmax (8 mg/kg/day, 8 mg/kg/day PO, DFMO 50 mg/kg/day, Day 28, M+F combined, read-out: Cmax Median): 171 ng/mL
- Tmax (8 mg/kg/day, 8 mg/kg/day PO, DFMO 50 mg/kg/day, Day 28, M+F combined, read-out: Tmax Mean): 6.67 h
- Tmax (8 mg/kg/day, 8 mg/kg/day PO, DFMO 50 mg/kg/day, Day 28, M+F combined, read-out: Tmax Median): 6 h
- half-life (8 mg/kg/day, 8 mg/kg/day PO, DFMO 50 mg/kg/day, Day 28, M+F combined, read-out: t1/2 Mean (converted)): 18 h
- half-life (8 mg/kg/day, 8 mg/kg/day PO, DFMO 50 mg/kg/day, Day 28, M+F combined, read-out: t1/2 Median (converted)): 20.3 h
- AUC(0-t) (8 mg/kg/day, 8 mg/kg/day PO, DFMO 200 mg/kg/day, Day 1, M+F combined, read-out: AUC0-24 hr Mean): 1470 ng·h/mL
- AUC(0-t) (8 mg/kg/day, 8 mg/kg/day PO, DFMO 200 mg/kg/day, Day 1, M+F combined, read-out: AUC0-24 hr Median): 1390 ng·h/mL
- Cmax (8 mg/kg/day, 8 mg/kg/day PO, DFMO 200 mg/kg/day, Day 1, M+F combined, read-out: Cmax Mean): 101 ng/mL
- Cmax (8 mg/kg/day, 8 mg/kg/day PO, DFMO 200 mg/kg/day, Day 1, M+F combined, read-out: Cmax Median): 86.5 ng/mL
- Tmax (8 mg/kg/day, 8 mg/kg/day PO, DFMO 200 mg/kg/day, Day 1, M+F combined, read-out: Tmax Mean): 9 h
- Tmax (8 mg/kg/day, 8 mg/kg/day PO, DFMO 200 mg/kg/day, Day 1, M+F combined, read-out: Tmax Median): 9 h
- AUC(0-t) (16 mg/kg/day, 16 mg/kg/day PO, DFMO 0, Day 1, M+F combined, read-out: AUC0-24 hr Mean): 2500 ng·h/mL
- AUC(0-t) (16 mg/kg/day, 16 mg/kg/day PO, DFMO 0, Day 1, M+F combined, read-out: AUC0-24 hr Median): 1750 ng·h/mL
- Cmax (16 mg/kg/day, 16 mg/kg/day PO, DFMO 0, Day 1, M+F combined, read-out: Cmax Mean): 155 ng/mL
- Cmax (16 mg/kg/day, 16 mg/kg/day PO, DFMO 0, Day 1, M+F combined, read-out: Cmax Median): 113 ng/mL
- Tmax (16 mg/kg/day, 16 mg/kg/day PO, DFMO 0, Day 1, M+F combined, read-out: Tmax Mean): 6 h
- Tmax (16 mg/kg/day, 16 mg/kg/day PO, DFMO 0, Day 1, M+F combined, read-out: Tmax Median): 6 h
- AUC(0-t) (16 mg/kg/day, 16 mg/kg/day PO, DFMO 0, Day 28, M+F combined, read-out: AUC0-24 hr Mean): 4590 ng·h/mL
- AUC(0-t) (16 mg/kg/day, 16 mg/kg/day PO, DFMO 0, Day 28, M+F combined, read-out: AUC0-24 hr Median): 4890 ng·h/mL
- AUC(0-t) (16 mg/kg/day, 16 mg/kg/day PO, DFMO 0, Day 28, M+F combined, read-out: AUC0-t Mean): 7970 ng·h/mL
